ChEMBL document CHEMBL1201862, “PubChem BioAssay data set” (2004)
Active and inactive are the calls of the source.

Columns and labels:
[1] = target: Beta-adrenergic receptor kinase 1 (Homo sapiens, UniProt P25098); experiment: GRK2 inhibitors displacing RNA aptamer, dose response, biochemical, flow cytometry beads, FAM-aptamer, powder set 1 (AID 588720)
[2] = target: Keap1/Nrf2 (Homo sapiens, UniProt Q14145); experiment: Keap1-Nrf2 protein-protein interaction inhibitors, dose response, biochemical, fluorescence polarization, cherry-picked samples (AID 588683)
[3] = target: T1, ORF 73 (Human herpesvirus 8, UniProt O40947); experiment: inhibitors of C-LANA binding to LBS DNA, dose response, biochemical, fluorescence polarization, cherry-picked samples (AID 504725); design: species or system Human gammaherpesvirus 8;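 further: fluorescence polarization of a labeled DNA duplex reporting LANA DNA binding; potency is for inhibitors that block LANA binding to the DNA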
T1 sequence (O40947 whole entry): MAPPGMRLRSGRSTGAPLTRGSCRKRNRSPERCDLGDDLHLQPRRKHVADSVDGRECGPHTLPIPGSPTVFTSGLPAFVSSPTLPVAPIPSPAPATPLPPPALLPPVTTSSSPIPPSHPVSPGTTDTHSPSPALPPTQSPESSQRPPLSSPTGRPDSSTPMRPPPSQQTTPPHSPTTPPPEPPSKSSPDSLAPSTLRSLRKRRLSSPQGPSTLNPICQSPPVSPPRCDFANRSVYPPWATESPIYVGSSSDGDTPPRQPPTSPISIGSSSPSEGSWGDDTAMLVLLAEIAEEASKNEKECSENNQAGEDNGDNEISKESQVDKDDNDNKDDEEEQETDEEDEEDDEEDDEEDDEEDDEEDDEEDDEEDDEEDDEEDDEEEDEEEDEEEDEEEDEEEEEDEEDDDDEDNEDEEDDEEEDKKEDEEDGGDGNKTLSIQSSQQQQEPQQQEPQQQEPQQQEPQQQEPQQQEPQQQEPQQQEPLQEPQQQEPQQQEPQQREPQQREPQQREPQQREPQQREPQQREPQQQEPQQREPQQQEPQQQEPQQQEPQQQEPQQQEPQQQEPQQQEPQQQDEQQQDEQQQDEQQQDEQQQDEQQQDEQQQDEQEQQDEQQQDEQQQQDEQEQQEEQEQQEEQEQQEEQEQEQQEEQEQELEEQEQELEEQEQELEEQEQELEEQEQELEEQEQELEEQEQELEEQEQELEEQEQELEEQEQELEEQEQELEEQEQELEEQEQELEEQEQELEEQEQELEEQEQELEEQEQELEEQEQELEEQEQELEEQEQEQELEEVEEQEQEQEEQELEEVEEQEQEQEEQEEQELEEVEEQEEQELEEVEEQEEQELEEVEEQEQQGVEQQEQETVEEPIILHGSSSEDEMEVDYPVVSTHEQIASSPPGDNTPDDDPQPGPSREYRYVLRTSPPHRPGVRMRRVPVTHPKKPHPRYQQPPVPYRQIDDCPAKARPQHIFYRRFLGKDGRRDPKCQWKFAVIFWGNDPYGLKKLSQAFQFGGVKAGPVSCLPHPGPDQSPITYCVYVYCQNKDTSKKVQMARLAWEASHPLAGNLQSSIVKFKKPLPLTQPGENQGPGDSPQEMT

[4] = target: T2, Protein skinhead-1 (Caenorhabditis elegans, UniProt P34707); assay type: functional
T2 sequence (P34707 whole entry): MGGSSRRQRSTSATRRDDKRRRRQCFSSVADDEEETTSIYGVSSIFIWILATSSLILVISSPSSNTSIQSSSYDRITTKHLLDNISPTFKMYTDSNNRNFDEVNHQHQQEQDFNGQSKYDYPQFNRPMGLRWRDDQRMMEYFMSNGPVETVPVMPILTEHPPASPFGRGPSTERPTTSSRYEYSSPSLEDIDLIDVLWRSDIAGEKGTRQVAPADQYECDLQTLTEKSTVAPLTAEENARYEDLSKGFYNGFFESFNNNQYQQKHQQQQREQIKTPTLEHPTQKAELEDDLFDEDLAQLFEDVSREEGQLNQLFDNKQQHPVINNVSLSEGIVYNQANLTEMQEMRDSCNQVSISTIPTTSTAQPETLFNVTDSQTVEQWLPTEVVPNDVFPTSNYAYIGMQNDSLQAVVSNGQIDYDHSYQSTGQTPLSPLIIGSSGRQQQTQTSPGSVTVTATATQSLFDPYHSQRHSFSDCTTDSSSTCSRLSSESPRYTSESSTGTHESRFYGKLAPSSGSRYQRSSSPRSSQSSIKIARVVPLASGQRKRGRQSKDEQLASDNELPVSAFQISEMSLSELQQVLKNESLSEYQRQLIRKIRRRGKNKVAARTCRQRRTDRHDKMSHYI

[5] = target: Delta-type opioid receptor (Homo sapiens, UniProt P41143); experiment: Counterscreen for agonists of heterodimerization of the mu 1 (OPRM1) and delta 1 (OPRD1) opioid receptors: Luminescence-based cell-based high throughput dose response assay to identify agonists of OPRD1 homodimerization. [Related pubchem assays (depositor defined):AID504326, AID504355, AID504692, AID504904, AID504905]; assay type: functional
[6] = target: Mu-type opioid receptor (Homo sapiens, UniProt P35372); experiment: Counterscreen for agonists of heterodimerization of the mu 1 (OPRM1) and delta 1 (OPRD1) opioid receptors: Luminescence-based cell-based high throughput dose response assay to identify agonists of OPRM1 homodimerization.; assay type: functional;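 further: U2OS cells expressing OPRM1 and beta-arrestin as split beta-galactosidase partners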
[7] = target: 5-hydroxytryptamine receptor 5A (Homo sapiens, UniProt P47898); experiment: Counterscreen for agonists of OPRM1-OPRD1 heterodimerization: luminescence-based cell-based high throughput dose response assay to identify agonists of 5-hydroxytryptamine (serotonin) 5A receptor (HTR5A). [Related pubchem assays (depositor defined):AID504326, AID504355, AID504692, AID504904, AID504905]; assay type: functional
5-hydroxytryptamine receptor 5A, sequence (P47898 whole entry): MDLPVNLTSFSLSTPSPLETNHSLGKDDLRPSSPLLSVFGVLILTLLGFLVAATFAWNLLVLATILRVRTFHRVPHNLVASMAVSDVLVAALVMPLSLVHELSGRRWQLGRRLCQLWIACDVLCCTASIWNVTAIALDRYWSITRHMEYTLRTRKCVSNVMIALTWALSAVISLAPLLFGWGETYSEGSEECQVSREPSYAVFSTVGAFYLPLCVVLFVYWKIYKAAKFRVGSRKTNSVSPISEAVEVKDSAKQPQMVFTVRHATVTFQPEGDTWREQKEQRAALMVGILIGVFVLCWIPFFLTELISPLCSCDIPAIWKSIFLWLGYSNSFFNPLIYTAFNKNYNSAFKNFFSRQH

Delta-type opioid receptor, sequence (P41143 whole entry): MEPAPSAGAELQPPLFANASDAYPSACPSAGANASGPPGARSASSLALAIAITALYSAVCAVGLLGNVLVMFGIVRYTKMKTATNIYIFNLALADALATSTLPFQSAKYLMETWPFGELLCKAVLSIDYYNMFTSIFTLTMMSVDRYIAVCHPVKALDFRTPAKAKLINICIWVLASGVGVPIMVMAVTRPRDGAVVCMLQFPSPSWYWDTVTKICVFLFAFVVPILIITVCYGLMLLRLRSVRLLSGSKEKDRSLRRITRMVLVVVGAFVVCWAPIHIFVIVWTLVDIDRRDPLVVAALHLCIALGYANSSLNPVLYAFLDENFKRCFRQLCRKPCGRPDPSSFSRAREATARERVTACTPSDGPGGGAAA
Mu-type opioid receptor, sequence (P35372 whole entry): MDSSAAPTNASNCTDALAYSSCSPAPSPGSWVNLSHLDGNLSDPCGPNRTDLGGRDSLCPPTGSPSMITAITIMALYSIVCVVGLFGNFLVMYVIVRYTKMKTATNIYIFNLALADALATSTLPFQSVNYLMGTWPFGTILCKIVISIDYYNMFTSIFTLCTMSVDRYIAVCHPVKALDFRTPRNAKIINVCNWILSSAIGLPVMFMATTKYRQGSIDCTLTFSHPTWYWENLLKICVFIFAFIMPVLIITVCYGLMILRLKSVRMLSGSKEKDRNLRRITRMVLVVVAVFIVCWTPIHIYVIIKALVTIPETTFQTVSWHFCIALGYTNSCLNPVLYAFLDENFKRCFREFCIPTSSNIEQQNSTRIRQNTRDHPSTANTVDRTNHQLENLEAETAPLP
Beta-adrenergic receptor kinase 1, sequence (P25098 whole entry): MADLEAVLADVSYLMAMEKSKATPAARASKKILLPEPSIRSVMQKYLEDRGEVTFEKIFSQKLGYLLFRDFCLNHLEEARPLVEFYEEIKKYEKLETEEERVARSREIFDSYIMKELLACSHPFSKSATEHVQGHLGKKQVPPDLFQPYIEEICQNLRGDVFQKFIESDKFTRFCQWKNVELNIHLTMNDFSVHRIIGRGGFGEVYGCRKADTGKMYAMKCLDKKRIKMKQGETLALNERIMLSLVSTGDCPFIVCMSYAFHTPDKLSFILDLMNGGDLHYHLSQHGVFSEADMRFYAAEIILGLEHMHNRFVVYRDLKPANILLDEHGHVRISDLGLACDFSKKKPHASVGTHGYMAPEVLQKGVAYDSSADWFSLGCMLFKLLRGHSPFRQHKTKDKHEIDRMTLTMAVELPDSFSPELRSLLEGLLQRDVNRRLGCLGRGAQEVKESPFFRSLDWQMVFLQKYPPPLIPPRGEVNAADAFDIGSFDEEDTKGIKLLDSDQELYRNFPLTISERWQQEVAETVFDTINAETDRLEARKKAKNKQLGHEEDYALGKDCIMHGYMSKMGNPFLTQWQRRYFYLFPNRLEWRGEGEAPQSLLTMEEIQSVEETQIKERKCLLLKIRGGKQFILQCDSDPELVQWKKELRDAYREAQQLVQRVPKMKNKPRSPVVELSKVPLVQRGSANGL
Keap1/Nrf2, sequence (Q16236 whole entry): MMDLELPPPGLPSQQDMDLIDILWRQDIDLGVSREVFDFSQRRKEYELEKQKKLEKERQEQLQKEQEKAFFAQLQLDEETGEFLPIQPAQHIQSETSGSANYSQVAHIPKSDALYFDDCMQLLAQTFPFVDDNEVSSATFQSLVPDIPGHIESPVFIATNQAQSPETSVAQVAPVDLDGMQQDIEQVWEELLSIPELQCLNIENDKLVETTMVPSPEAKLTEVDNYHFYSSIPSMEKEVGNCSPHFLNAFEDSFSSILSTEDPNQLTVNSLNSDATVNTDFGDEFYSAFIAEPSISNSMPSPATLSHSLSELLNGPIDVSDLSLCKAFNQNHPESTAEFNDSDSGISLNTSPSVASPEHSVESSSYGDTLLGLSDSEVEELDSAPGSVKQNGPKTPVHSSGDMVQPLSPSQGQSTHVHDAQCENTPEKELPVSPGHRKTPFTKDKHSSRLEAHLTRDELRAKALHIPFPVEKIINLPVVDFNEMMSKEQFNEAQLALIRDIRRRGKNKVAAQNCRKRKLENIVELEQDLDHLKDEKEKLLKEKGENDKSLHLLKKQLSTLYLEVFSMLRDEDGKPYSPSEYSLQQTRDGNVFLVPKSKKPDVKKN
Keap1/Nrf2, sequence (Q14145 whole entry): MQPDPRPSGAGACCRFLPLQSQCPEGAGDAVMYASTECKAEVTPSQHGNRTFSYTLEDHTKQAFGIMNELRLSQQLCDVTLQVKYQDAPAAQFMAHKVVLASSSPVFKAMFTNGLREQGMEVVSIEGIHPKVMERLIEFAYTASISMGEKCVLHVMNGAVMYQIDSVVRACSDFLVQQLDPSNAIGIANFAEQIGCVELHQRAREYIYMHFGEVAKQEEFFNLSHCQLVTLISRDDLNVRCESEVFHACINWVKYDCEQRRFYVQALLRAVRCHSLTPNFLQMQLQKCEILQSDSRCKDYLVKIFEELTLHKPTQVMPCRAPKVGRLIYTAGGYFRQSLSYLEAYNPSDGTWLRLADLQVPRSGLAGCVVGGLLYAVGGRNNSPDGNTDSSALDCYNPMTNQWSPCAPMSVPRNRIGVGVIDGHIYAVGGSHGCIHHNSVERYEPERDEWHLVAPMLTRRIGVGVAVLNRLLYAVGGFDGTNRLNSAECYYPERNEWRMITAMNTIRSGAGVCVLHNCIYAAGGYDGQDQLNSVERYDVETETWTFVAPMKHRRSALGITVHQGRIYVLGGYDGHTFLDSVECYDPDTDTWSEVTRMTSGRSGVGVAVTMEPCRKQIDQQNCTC

O=C(CCS(=O)(=O)c1ccc(Br)cc1)NCCc1ccc(Cl)cc1
EC50 [1]: 7.06 µM (active)

Cc1nc(Cl)c2c(n1)N=C1CCCC(O)=C1O2
AC50 [2]: 15.1 µM (active)
AC50 [3]: 8.8 µM (active)

OC(CN1CCN(C(c2ccccc2)c2ccccc2)CC1)c1ccccc1 (configuration not stated)
IC50 [4]: > 100 µM (inactive)
EC50 [5]: > 92.6 µM (inactive)
EC50 [6]: > 92.6 µM (inactive)
EC50 [7]: > 92.6 µM (inactive)
